Reference: patent US6228872A, “Neurotrophic diamide and carbamate agents” (Bristol-Myers Squibb Company, priority 1999, dated 2001)
Like-named read-outs stand apart in the source and are kept apart here. One block for each molecule: values may come before it.

Target: FKBP12 (Homo sapiens, UniProt P62942)
Assay: FKBP12 Rotamase Inhibition Assay
Format: biochemical
Conditions: for inhibition at 10 µM: read-out: % inhib. at 10 μM; for Ki: apparent Ki, 4° C., substrate succinyl-Ala-Leu-Pro-Phe-p-nitroanilide
Description: FKBP12 Rotamase Inhibition Assay
The rotamase activity of FKBP-12 was measured by an adaptation of the assay described by Kofron et al. (Biochemistry, 30, pp. 6127-6134 (1991)). The assay was carried out at 4° C. with 1 mg chymotrypsin/mL of assay with succinyl-Ala-Leu-Pro-Phe-p-nitroanilide as the substrate. Chymotrypsin rapidly hydrolyzes the peptide bond on the C-terminal side of the Phe of the trans form of the peptide and releases the chromogenic p-nitroaniline. The rate of the reaction is controlled by the rate of conversion of the cis form of the peptide to the trans-form, the reaction catalyzed by FKBP12. The apparent Ki values for inhibition of the rotamase activity were determined by measuring decreases in the first order rate constant of the reaction catalyzed by FKBP12 as a function of the concentrations of the compounds described herein. Ki is the concentration of the compound that causes 50 percent inhibition of rotamase activity which is indicative of neurite outgrowth activity.

[1] = Table 2, 1 μM (values marked *), read-out: % inhib. at 1 μM*
[2] = Table 3, 1 μM, read-out: % rotamase inhib. at 1 μM
[3] = Table 4, 1 μM, read-out: % rotamase inhib. at 1 μM
[4] = Table 1, 1 μM (values marked *), read-out: % inhib. at 1 μM*

Sequence of FKBP12 (P62942 whole entry, species assumed): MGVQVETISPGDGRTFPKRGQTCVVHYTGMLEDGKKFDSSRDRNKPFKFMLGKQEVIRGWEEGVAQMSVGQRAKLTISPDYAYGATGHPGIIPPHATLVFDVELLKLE

Compound: COc1cc(C(F)(F)C(=O)N2CCCCC2COC(=O)N(CCCc2cccnc2)Cc2ccccc2)cc(OC)c1OC (racemic) [Example 41, N-(3,4,5-Trimethoxyphenyl)-difluoroacetyl-(±)-piperidinylmethyl-[N',N'-3-(3-pyridyl)propyl-benzylamino]carbamate]
- inhibition at 1 µM [1]: 11%

Compound: COc1cc(C(F)(F)C(=O)N2CCCCC2COC(=O)N(CCCc2cccnc2)CCc2ccccc2)cc(OC)c1OC (racemic) [Example 42, N-(3,4,5-Trimethoxyphenyl)-difluoroacetyl-(±)-piperidinylmethyl-[N',N'-3-(3-pyridyl)propyl-2-phenylethylamino]carbamate]
- inhibition at 1 µM [1]: 1%

Compound: COc1cc(C(F)(F)C(=O)N2CCCCC2COC(=O)N(CCCCc2ccccc2)CCCc2cccnc2)cc(OC)c1OC (racemic) [Example 43]
- inhibition at 1 µM [1]: 0%

Compound: CC(C)(C)C(=O)C(=O)N1CCC[C@H]1COC(=O)N(CCCc1ccccc1)CCCc1cccnc1 [Example 1, N-Trimethylpyruvyl-L-pyrrolidinylmethyl-[N',N'-3-(3-pyridyl)propyl-3-phenylpropylamino]carbamate]
- inhibition at 10 µM (Table 1): 93%

Compound: CC(C)(C)C(=O)C(=O)N1CCC[C@H]1COC(=O)N(Cc1ccccc1)Cc1ccccc1 [Example 2, N-Trimethylpyruvyl-L-pyrrolidinylmethyl-[N',N'-dibenzylamino]carbamate]
- inhibition at 10 µM (Table 1): 27%

Compound: CC(C)(C)C(=O)C(=O)N1CCC[C@H]1COC(=O)N(CCc1ccccc1)Cc1ccccc1 [Example 3, N-Trimethylpyruvyl-L-pyrrolidinylmethyl-[N',N'-2-phenylethyl-benzylamino]carbamate]
- inhibition at 10 µM (Table 1): 39%

Compound: CC(C)(C)C(=O)C(=O)N1CCC[C@H]1COC(=O)NCc1cccnc1 [Example 4, N-Trimethylpyruvyl-L-pyrrolidinylmethyl-[N'-3-pyridylmethylamino]carbamate]
- inhibition at 10 µM (Table 1): 12%

Compound: CC(C)(C)C(=O)C(=O)N1CCC[C@H]1COC(=O)NCCCc1ccccc1 [Example 6, N-Trimethylpyruvyl-L-pyrrolidinylmethyl-[N'-3-phenylpropylamino]carbamate]
- inhibition at 10 µM (Table 1): 32%

Compound: COc1cccc(CCCN(CCCc2cccnc2)C(=O)OC[C@@H]2CCCN2C(=O)C(=O)c2cc(OC)c(OC)c(OC)c2)c1 [Example 17, N-(3,4,5-Trimethoxyphenyl)oxalyl-L-pyrrolidinylmethyl-[N',N'-3-(3-pyridyl)propyl-3-(3-methoxyphenyl)propylamino]carbamate]
- inhibition at 1 µM [2]: 75%

Compound: COc1cc(CCCN(CCCc2cccnc2)C(=O)OC[C@@H]2CCCN2C(=O)C(=O)c2cc(OC)c(OC)c(OC)c2)cc(OC)c1OC [Example 18, N-(3,4,5-Trimethoxyphenyl)oxalyl-L-pyrrolidinylmethyl-[N',N'-3-(3-pyridyl)propyl-3-(3,4,5-trimethoxyphenyl)propylamino]carbamate]
- inhibition at 1 µM [2]: 68%

Compound: COc1cc(C(=O)C(=O)N2CCCC[C@H]2CCC(=O)N(CCCc2ccccc2)CCCc2cccnc2)cc(OC)c1OC [Example 20]
- inhibition at 1 µM [3]: 0%

Compound: COc1cc(C(=O)C(=O)N2CCC[C@H]2CCC(=O)N(CCCc2ccccc2)CCCc2cccnc2)cc(OC)c1OC [Example 21, N,N-(3-Phenylpropyl)-3-(3-pyridyl)propyl-2-[(S)-N'-(3,4,5-trimethoxyphenyl)oxalyl-2-pyrrolidinyl]propionamide]
- inhibition at 1 µM [3]: 1%

Compound: COc1cc(C(F)(F)C(=O)N2CCC[C@H]2COC(=O)N(CCCCc2ccccc2)CCCCc2cccnc2)cc(OC)c1OC [Example 22, N-(3,4,5-Trimethoxyphenyl)-difluoroacetyl-L-pyrrolidinylmethyl-[N',N'-4-(3-pyridyl)butyl-4-phenylbutylamino]carbamate]
- inhibition at 1 µM [1]: 83%
- Ki (Table 2): 271 nM

Compound: COc1cc(C(F)(F)C(=O)N2CCC[C@H]2COC(=O)N(CCCc2ccccc2)CCCc2cccnc2)cc(OC)c1OC [Example 23, N-(3,4,5-Trimethoxyphenyl)-difluoroacetyl-L-pyrrolidinylmethyl-[N',N'-3-(3-pyridyl)propyl-3-phenylpropylamino]carbamate]
- inhibition at 10 µM (Table 2): 98%
- Ki (Table 2): 113 nM

Compound: COc1cc(C(F)(F)C(=O)N2CCC[C@H]2COC(=O)N(Cc2ccccc2)Cc2ccccc2)cc(OC)c1OC [Example 24, N-(3,4,5-Trimethoxyphenyl)-difluoroacetyl-L-pyrrolidinylmethyl-[N',N'-dibenzylamino]carbamate]
- inhibition at 1 µM [4]: 34%

Compound: COc1cc(C(F)(F)C(=O)N2CCC[C@H]2COC(=O)N(CCc2ccccc2)CCc2c[nH]c3ccccc23)cc(OC)c1OC [Example 25, N-(3,4,5-Trimethoxyphenyl)-difluoroacetyl-L-pyrrolidinylmethyi-[N',N'-2-(3-indolyl)ethyl-2-phenylethylamino]carbamate]
- inhibition at 1 µM [4]: 11%

Compound: COc1cc(C(F)(F)C(=O)N2CCC[C@H]2COC(=O)N(CCCCc2ccccc2)CCCc2cccnc2)cc(OC)c1OC [Example 26, N-(3,4,5-Trimethoxyphenyl)-difluoroacetyl-L-pyrrolidinylmethyl-[N',N'-3-(3-pyridyl)propyl-4-phenylbutylamino]carbamate]
- inhibition at 10 µM (Table 2): 99%
- Ki (Table 2): 158 nM

Compound: COc1cc(C(F)(F)C(=O)N2CCC[C@H]2COC(=O)N(CCCc2cccnc2)CCc2ccccc2)cc(OC)c1OC [Example 27, N-(3,4,5-Trimethoxyphenyl)-difluoroacetyl-L-pyrrolidinylmethyl-[N',N'-3-(3-pyridyl)propyl-2-phenylethylamino]carbamate]
- inhibition at 10 µM (Table 2): 97%
- Ki (Table 2): 234 nM

Now from value to molecule:

- inhibition at 10 µM (Table 2): 11%
Compound: COc1cc(C(=O)C(=O)N2CCCCC2COC(=O)N(CCCc2ccccc2)CCCc2cccnc2)cc(OC)c1OC (racemic) [Example 19, N-(3,4,5-Trimethoxyphenyl)oxalyl-(±)-piperidinylmethyl-[N',N'-3-(3-pyridyl)-propyl-3-phenylpropylamino]carbamate]

- inhibition at 10 µM (Table 1): 0%
Compound: CC(C)(C)C(=O)C(=O)N1CCC[C@H]1COC(=O)NCCc1ccccc1 [Example 5, N-Trimethylpyruvyl-L-pyrrolidinylmethyl-[N'-2-phenylethylamino]carbamate]

- inhibition at 10 µM (Table 2): 100%
- Ki (Table 2): 447 nM
Compound: COc1cc(C(=O)C(=O)N2CCC[C@H]2COC(=O)N(CCCc2ccccc2)CCCc2cccnc2)cc(OC)c1OC [Example 7, N-(3,4,5-Trimethoxyphenyl)oxalyl-L-pyrrolidinylmethyl-[N',N'-3-(3-pyridyl)propyl-3-phenylpropylamino]carbamate]

- inhibition at 10 µM (Table 1): 11%
Compound: COc1cc(C(=O)C(=O)N2CCC[C@H]2COC(=O)NCc2cccnc2)cc(OC)c1OC [Example 8, N-(3,4,5-Trimethoxyphenyl)oxalyl-L-pyrrolidinylmethyl-[N'-3-pyridylmethylamino]carbamate]

- inhibition at 10 µM (Table 1): 11%
Compound: COc1cc(C(=O)C(=O)N2CCC[C@H]2COC(=O)NCCc2ccccc2)cc(OC)c1OC [Example 9, N-(3,4,5-Trimethoxyphenyl)oxalyl-L-pyrrolidinylmethyl-[N'-2-phenylethylamino]carbamate]

- inhibition at 1 µM [1]: 52%
Compound: COc1cc(C(=O)C(=O)N2CCC[C@H]2COC(=O)N(CCCCc2ccccc2)CCCCc2cccnc2)cc(OC)c1OC [Example 10, N-(3,4,5-Trimethoxyphenyl)oxalyl-L-pyrrolidinylmethyl-[N',N'-4-(3-pyridyl)butyl-4-phenylbutylamino]carbamate]

- inhibition at 10 µM (Table 2): 96%
- Ki (Table 2): 537 nM
Compound: COc1cc(C(=O)C(=O)N2CCC[C@H]2COC(=O)N(CCCCc2ccccc2)CCCc2cccnc2)cc(OC)c1OC [Example 11, N-(3,4,5-Trimethoxyphenyl)oxalyl-L-pyrrolidinylmethyl-[N',N'-3-(3-pyridyl)propyl-4-phenylbutylamino]carbamate]

- inhibition at 10 µM (Table 2): 80%
Compound: COc1cc(C(=O)C(=O)N2CCC[C@H]2COC(=O)N(CCCc2cccnc2)CCc2ccccc2)cc(OC)c1OC [Example 12, N-(3,4,5-Trimethoxyphenyl)oxalyl-L-pyrrolidinylmethyl-[N',N'-3-(3-pyridyl)propyl-2-phenylethylamino]carbamate]

- inhibition at 10 µM (Table 2): 79%
Compound: COc1cc(C(=O)C(=O)N2CCC[C@H]2COC(=O)N(CCCc2cccnc2)Cc2ccccc2)cc(OC)c1OC [Example 13, N-(3,4,5-Trimethoxyphenyl)oxalyl-L-pyrrolidinylmethyl-[N',N'-3-(3-pyridyl)propyl-benzylamino]carbamate]

- inhibition at 1 µM [1]: 54%
Compound: COc1cc(C(=O)C(=O)N2CCC[C@H]2COC(=O)N(CCCCc2cccnc2)CCCc2ccccc2)cc(OC)c1OC [Example 14, N-(3,4,5-Trimetboxyphenyl)oxalyl-L-pyrrolidinylmethyl-[N',N'-4-(3-pyridyl)butyl-3-phenylpropylamino]carbamate]

- inhibition at 10 µM (Table 2): 82%
Compound: COc1cc(C(=O)C(=O)N2CCC[C@H]2COC(=O)N(CCCCc2cccnc2)CCc2ccccc2)cc(OC)c1OC [Example 15, N-(3,4,5-Trimethoxyphenyl)oxalyl-L-pyrrolidinylmethyl-[N',N'-4-(3-pyridyl)butyl-2-phenylethylamino]carbamate]

- inhibition at 1 µM [1]: 18%
Compound: COc1cc(C(=O)C(=O)N2CCC[C@H]2COC(=O)N(CCCCc2cccnc2)Cc2ccccc2)cc(OC)c1OC [Example 16, N-(3,4,5-Trimethoxyphenyl)oxalyl-L-pyrrolidinylmethyl-[N',N'-4-(^3-pyridyl)butyl-benzylamino]carbamate]
